Reference: the kinase profiling compilation of Christmann-Franck et al. (2016)

Columns and labels:
Assay in all cases: radiometric filter-binding kinase assay, Kinase HotSpot
Conditions in all cases: compound 0.5 µM; ATP 10 µM
PRKD2 (human) = PRKD2 (human) (UniProt Q9BZL6)
AURKA (human) = AURKA (human) (UniProt O14965)
AXL (human) = AXL (human) (UniProt P30530)
MAP3K3 (human) = MAP3K3 (human) (UniProt Q99759)
CSNK2A1 (human) = CSNK2A1 (human) (UniProt P68400)
GSK3A (human) = GSK3A (human) (UniProt P49840)
GSK3A (human), sequence (P49840 whole entry, looked up): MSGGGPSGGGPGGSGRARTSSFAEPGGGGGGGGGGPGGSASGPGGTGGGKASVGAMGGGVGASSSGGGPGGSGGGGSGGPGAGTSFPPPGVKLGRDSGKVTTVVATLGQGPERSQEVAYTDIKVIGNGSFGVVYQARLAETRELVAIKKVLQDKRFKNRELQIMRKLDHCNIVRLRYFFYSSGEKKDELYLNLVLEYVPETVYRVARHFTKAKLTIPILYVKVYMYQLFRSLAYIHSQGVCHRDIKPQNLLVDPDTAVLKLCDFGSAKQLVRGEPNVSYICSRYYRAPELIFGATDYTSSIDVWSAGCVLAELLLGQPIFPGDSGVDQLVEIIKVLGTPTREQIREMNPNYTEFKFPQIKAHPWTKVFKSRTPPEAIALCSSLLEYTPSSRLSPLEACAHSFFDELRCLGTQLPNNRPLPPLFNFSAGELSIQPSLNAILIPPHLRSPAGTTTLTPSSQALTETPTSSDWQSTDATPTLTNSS

MYLK (human) = MYLK (human) (UniProt Q15746)
SRC (human) = SRC (human) (UniProt P12931)
MARK4 (human) = MARK4 (human) (UniProt Q96L34)
STK17A (human) = STK17A (human) (UniProt Q9UEE5)
TGFBR1 (human) = TGFBR1 (human) (UniProt P36897)
SLK (human) = SLK (human) (UniProt Q9H2G2)
TEC (human) = TEC (human) (UniProt P42680)
TEC (human), sequence (P42680 whole entry, looked up): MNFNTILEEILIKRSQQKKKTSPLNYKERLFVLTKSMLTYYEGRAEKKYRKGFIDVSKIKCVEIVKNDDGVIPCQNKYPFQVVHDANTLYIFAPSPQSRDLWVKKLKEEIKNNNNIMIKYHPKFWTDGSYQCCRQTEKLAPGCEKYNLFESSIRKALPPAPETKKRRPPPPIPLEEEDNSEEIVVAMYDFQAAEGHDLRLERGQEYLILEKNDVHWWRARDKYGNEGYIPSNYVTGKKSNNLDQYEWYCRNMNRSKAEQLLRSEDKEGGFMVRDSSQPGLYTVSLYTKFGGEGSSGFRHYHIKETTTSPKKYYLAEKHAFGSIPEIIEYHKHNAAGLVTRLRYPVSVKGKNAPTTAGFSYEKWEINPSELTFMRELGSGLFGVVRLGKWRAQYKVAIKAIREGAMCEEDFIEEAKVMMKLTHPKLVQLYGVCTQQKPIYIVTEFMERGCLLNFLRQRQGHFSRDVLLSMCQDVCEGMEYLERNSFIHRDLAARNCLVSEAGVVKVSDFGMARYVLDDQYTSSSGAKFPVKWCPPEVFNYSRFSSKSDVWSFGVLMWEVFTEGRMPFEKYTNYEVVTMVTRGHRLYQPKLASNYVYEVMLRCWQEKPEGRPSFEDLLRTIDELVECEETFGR

CSNK1A1 (human) = CSNK1A1 (human) (UniProt P48729)
CSNK1A1 (human), sequence (P48729 whole entry, looked up): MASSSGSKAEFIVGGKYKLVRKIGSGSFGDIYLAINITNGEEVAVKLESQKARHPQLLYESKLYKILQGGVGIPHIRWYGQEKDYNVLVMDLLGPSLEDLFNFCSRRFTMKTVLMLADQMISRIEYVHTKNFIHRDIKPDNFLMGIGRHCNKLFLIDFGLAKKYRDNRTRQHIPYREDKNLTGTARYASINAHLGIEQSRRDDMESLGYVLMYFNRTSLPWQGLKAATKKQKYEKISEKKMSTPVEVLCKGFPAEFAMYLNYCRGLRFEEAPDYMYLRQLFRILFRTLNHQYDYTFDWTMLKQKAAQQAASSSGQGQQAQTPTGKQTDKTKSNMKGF

CDK9 CCNT1 (human) = CDK9 CCNT1 (human) (UniProt P50750+O60563)
RIPK2 (human) = RIPK2 (human) (UniProt O43353)
CAMKK2 (human) = CAMKK2 (human) (UniProt Q96RR4)
CAMKK2 (human), sequence (Q96RR4 whole entry, looked up): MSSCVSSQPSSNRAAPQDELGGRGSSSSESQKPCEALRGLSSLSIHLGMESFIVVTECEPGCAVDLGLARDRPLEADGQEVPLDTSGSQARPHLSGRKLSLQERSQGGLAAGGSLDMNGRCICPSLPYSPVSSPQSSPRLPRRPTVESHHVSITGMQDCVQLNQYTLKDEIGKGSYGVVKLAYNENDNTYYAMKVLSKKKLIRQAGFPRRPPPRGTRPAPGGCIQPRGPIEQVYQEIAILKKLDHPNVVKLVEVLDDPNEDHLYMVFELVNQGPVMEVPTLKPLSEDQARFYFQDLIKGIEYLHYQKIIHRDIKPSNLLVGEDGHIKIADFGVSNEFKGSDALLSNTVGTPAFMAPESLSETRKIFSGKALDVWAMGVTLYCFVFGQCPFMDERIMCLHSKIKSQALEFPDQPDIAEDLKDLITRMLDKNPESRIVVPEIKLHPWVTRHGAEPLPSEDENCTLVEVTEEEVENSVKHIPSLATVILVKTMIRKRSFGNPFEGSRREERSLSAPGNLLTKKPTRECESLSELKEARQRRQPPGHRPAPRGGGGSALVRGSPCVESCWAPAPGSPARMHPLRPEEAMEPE

ZAP70 (human) = ZAP70 (human) (UniProt P43403)
SYK (human) = SYK (human) (UniProt P43405)
TSSK2 (human) = TSSK2 (human) (UniProt Q96PF2)
ACVR1B (human) = ACVR1B (human) (UniProt P36896)
CDC42BPA (human) = CDC42BPA (human) (UniProt Q5VT25)
MARK3 (human) = MARK3 (human) (UniProt P27448)
MARK3 (human), sequence (P27448 whole entry, looked up): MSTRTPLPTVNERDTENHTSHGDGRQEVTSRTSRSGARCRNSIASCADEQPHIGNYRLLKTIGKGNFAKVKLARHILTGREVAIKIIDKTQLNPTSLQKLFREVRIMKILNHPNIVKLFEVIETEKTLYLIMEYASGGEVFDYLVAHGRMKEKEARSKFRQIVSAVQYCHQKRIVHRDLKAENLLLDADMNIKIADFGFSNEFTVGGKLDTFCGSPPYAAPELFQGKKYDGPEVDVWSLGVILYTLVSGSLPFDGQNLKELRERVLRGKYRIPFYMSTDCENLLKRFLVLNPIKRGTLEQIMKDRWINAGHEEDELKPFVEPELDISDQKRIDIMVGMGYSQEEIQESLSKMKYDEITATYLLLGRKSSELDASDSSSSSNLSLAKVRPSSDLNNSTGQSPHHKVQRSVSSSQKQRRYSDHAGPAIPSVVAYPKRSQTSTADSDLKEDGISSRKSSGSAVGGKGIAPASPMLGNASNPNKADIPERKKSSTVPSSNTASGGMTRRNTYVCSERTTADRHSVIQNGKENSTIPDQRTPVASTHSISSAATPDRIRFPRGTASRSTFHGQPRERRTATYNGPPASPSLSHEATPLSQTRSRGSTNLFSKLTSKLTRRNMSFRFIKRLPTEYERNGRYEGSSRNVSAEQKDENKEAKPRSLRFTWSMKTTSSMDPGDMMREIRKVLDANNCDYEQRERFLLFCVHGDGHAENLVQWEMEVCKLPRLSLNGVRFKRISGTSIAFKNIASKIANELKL

PRKACA (human) = PRKACA (human) (UniProt P17612)
MAPK12 (human) = MAPK12 (human) (UniProt P53778)
PLK2 (human) = PLK2 (human) (UniProt Q9NYY3)
ROCK2 (human) = ROCK2 (human) (UniProt O75116)
CSNK1G3 (human) = CSNK1G3 (human) (UniProt Q9Y6M4)
MAP4K2 (human) = MAP4K2 (human) (UniProt Q12851)
[1] = target: TYK2 JH1 catalytic (human) (UniProt P29597)
TYK2 JH1 catalytic (human), sequence (P29597 whole entry, looked up): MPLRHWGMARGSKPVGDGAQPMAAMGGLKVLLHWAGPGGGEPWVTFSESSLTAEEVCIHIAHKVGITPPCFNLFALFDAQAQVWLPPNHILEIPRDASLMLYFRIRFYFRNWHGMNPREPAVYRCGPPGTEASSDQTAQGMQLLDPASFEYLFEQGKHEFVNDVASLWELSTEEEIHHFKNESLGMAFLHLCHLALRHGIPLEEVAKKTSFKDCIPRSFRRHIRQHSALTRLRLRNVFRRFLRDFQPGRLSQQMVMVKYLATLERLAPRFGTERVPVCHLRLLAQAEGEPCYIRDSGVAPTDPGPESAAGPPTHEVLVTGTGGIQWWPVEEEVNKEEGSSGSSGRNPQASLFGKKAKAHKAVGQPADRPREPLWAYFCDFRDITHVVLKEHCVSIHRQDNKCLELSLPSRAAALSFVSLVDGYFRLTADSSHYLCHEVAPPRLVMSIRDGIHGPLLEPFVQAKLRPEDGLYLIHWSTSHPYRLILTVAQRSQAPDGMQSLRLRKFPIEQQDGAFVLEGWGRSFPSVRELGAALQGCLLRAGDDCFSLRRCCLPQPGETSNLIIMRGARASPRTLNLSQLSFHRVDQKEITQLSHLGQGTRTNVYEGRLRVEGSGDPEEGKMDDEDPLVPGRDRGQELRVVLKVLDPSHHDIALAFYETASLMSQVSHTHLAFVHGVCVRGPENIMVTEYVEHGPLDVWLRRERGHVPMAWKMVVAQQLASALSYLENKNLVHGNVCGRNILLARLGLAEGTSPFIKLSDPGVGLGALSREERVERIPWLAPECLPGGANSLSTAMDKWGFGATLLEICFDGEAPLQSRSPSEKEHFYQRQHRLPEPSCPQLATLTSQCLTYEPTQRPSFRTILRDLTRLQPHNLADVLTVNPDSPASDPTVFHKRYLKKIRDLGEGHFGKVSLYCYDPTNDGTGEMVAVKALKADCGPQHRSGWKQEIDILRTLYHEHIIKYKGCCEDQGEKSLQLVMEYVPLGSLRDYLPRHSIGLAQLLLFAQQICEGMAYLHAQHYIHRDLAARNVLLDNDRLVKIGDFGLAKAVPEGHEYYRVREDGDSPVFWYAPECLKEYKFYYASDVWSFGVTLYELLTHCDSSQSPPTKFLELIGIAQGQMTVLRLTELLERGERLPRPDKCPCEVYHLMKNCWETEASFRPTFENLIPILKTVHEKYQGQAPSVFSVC

PAK6 (human) = PAK6 (human) (UniProt Q9NQU5)
MAPK14 (human) = MAPK14 (human) (UniProt Q16539)
MAPK14 (human), sequence (Q16539 whole entry, looked up): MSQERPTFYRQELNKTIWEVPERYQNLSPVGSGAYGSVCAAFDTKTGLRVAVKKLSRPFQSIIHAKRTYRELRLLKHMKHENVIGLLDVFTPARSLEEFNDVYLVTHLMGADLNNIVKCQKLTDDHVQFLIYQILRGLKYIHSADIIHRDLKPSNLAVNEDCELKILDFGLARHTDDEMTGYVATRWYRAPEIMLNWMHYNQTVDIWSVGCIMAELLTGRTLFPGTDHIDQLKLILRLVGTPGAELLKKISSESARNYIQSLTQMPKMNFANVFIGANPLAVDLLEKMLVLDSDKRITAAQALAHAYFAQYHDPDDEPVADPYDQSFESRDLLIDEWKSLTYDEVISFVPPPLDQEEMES

FGFR3 (human) = FGFR3 (human) (UniProt P22607)
BTK (human) = BTK (human) (UniProt Q06187)
EPHA5 (human) = EPHA5 (human) (UniProt P54756)
EPHB2 (human) = EPHB2 (human) (UniProt P29323)
PTK2B (human) = PTK2B (human) (UniProt Q14289)
AKT1 (human) = AKT1 (human) (UniProt P31749)
[2] = target: JAK1 JH1 catalytic (human) (UniProt P23458)
NEK4 (human) = NEK4 (human) (UniProt P51957)
RAF1 (human) = RAF1 (human) (UniProt P04049)
STK24 (human) = STK24 (human) (UniProt Q9Y6E0)

MAP3K3 (human), sequence (Q99759 whole entry, looked up): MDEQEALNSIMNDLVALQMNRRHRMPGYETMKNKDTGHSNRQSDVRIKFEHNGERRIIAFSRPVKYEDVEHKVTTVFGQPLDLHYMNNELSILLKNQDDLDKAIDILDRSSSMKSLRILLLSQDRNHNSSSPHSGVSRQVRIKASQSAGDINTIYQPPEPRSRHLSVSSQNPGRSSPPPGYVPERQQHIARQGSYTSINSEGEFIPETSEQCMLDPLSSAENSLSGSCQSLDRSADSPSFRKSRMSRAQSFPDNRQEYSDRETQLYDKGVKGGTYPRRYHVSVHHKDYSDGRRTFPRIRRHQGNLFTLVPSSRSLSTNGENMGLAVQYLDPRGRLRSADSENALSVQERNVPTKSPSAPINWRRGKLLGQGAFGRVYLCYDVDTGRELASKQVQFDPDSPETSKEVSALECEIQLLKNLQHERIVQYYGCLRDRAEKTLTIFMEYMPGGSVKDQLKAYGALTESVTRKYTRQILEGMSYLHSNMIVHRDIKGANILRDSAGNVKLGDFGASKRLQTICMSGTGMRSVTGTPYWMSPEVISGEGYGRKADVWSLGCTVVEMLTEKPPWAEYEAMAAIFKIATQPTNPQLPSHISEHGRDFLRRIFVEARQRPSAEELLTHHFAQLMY

COc1ccc(C(=O)Nc2sc3c(c2C(N)=O)CCCC3)cc1OC
residual activity (PRKD2 (human)): 99.4% | residual activity (AURKA (human)): 97.9% | residual activity (AXL (human)): 84.4% | residual activity (MAP3K3 (human)): 100% | residual activity (CSNK2A1 (human)): 98.8% | residual activity (GSK3A (human)): 83.6% | residual activity (MYLK (human)): 41.2% | residual activity (SRC (human)): 100% | residual activity (MARK4 (human)): 86.5% | residual activity (STK17A (human)): 98.5% | residual activity (TGFBR1 (human)): 95.8% | residual activity (SLK (human)): 92.5% | residual activity (TEC (human)): 115% | residual activity (CSNK1A1 (human)): 108% | residual activity (CDK9 CCNT1 (human)): 102% | residual activity (RIPK2 (human)): 76.5% | residual activity (CAMKK2 (human)): 96.9% | residual activity (ZAP70 (human)): 95.6% | residual activity (SYK (human)): 91.2% | residual activity (TSSK2 (human)): 94.6% | residual activity (ACVR1B (human)): 101% | residual activity (CDC42BPA (human)): 81.8% | residual activity (MARK3 (human)): 94.1% | residual activity (PRKACA (human)): 102% | residual activity (MAPK12 (human)): 96.5% | residual activity (PLK2 (human)): 106% | residual activity (ROCK2 (human)): 92.3% | residual activity (CSNK1G3 (human)): 91.7% | residual activity (MAP4K2 (human)): 106% | residual activity [1]: 117% | residual activity (PAK6 (human)): 85.7% | residual activity (MAPK14 (human)): 97.5% | residual activity (FGFR3 (human)): 98.3% | residual activity (BTK (human)): 104% | residual activity (EPHA5 (human)): 104% | residual activity (EPHB2 (human)): 73.5% | residual activity (PTK2B (human)): 95.5% | residual activity (AKT1 (human)): 99.7% | residual activity [2]: 104% | residual activity (NEK4 (human)): 104% | residual activity (RAF1 (human)): 94.8% | residual activity (STK24 (human)): 93.9%

COc1ccc2c(c1)c(C1=C(c3c[nH]c4ccccc34)C(=O)NC1=O)cn2CCCN(C)C
residual activity (PRKD2 (human)): 92.3% | residual activity (AURKA (human)): 86.6% | residual activity (AXL (human)): 98.7% | residual activity (MAP3K3 (human)): 82.8% | residual activity (CSNK2A1 (human)): 95.9% | residual activity (GSK3A (human)): 14% | residual activity (MYLK (human)): 66.9% | residual activity (SRC (human)): 79.8% | residual activity (MARK4 (human)): 95.9% | residual activity (STK17A (human)): 84% | residual activity (TGFBR1 (human)): 101% | residual activity (SLK (human)): 69.4% | residual activity (TEC (human)): 97.9% | residual activity (CSNK1A1 (human)): 62.3% | residual activity (CDK9 CCNT1 (human)): 69.7% | residual activity (RIPK2 (human)): 70.2% | residual activity (CAMKK2 (human)): 82% | residual activity (ZAP70 (human)): 90.3% | residual activity (SYK (human)): 68.5% | residual activity (TSSK2 (human)): 85.5% | residual activity (ACVR1B (human)): 111% | residual activity (CDC42BPA (human)): 89.2% | residual activity (MARK3 (human)): 92.2% | residual activity (PRKACA (human)): 77.9% | residual activity (MAPK12 (human)): 84.8% | residual activity (PLK2 (human)): 103% | residual activity (ROCK2 (human)): 89.2% | residual activity (CSNK1G3 (human)): 77.8% | residual activity (MAP4K2 (human)): 56.3% | residual activity [1]: 126% | residual activity (PAK6 (human)): 70.4% | residual activity (MAPK14 (human)): 103% | residual activity (FGFR3 (human)): 87.5% | residual activity (BTK (human)): 90.2% | residual activity (EPHA5 (human)): 87.2% | residual activity (EPHB2 (human)): 78.7% | residual activity (PTK2B (human)): 104% | residual activity (AKT1 (human)): 99% | residual activity [2]: 100% | residual activity (NEK4 (human)): 90.7% | residual activity (RAF1 (human)): 99.3% | residual activity (STK24 (human)): 36.6%
